Test: cn = amount concentration of the nth substance listed, in mol/dm3
Settings: 101 kPa, Liquid, Dip Cell

CCCCCCCCCCCCCCCC[N+](C)(C)CCCCC[N+](C)(C)CCCCCCCCCCCCCCCC.[Br-].[Br-] + O
electrical conductivity [S/m]
Settings	298 K	303 K	308 K	313 K
c1 = 3.3e-06	6.8e-05	6.9e-05	7e-05	7.1e-05
c1 = 6.6e-06	0.000129	0.000135	0.000148	0.00015
c1 = 9.9e-06	0.00021	0.000219	0.00023	0.000236
c1 = 1.32e-05	0.000279	0.00029	0.000292	0.000308
c1 = 1.64e-05	0.000358	0.000376	0.000385	0.000396
c1 = 1.96e-05	0.000418	0.000432	0.000442	0.000456
c1 = 2.28e-05	0.000495	0.000505	0.000514	0.000519
c1 = 2.6e-05	0.000557	0.000564	0.000579	0.000584
c1 = 2.91e-05	0.000634	0.000646	0.000659	0.000684
c1 = 3.23e-05	0.000684	0.000699	0.000715	0.000732
c1 = 3.54e-05	0.000746	0.000766	0.000779	0.000789
c1 = 3.85e-05	0.000803	0.000816	0.000826	0.00087
c1 = 4.15e-05	0.000873	0.000873	0.000896	0.000945
c1 = 4.46e-05	0.000935	0.000935	0.000956	0.000998
c1 = 4.76e-05	0.001	0.001	0.00101	0.00108
c1 = 5.06e-05	0.00103	0.00105	0.00106	0.00112
c1 = 5.36e-05	0.00109	0.00113	0.00113	0.00115
c1 = 5.66e-05	0.00113	0.00116	0.00116	0.00121
c1 = 5.96e-05	0.00119	0.00122	0.00123	0.00125
c1 = 6.25e-05	0.00123	0.00127	0.00129	0.00129
c1 = 6.54e-05	0.00128	0.00132	0.00135	0.00135
c1 = 6.83e-05	0.00133	0.00137	0.00138	0.0014
c1 = 7.12e-05	0.00137	0.00142	0.00145	0.00144
c1 = 7.41e-05	0.00142	0.00146	0.00147	0.00148
c1 = 7.69e-05	0.00144	0.00149	0.0015	0.00152

CCCCCCCCCCCCCCCC[N+](C)(C)CCCC[N+](C)(C)CCCCCCCCCCCCCCCC.[Br-].[Br-] + O
electrical conductivity [S/m]
Settings	298 K	303 K	308 K	313 K
c1 = 3.3e-06	6.6e-05	6.6e-05	6.7e-05	6.8e-05
c1 = 6.6e-06	0.000121	0.000134	0.00015	0.00016
c1 = 9.9e-06	0.000187	0.000196	0.000207	0.000227
c1 = 1.32e-05	0.000256	0.000274	0.00029	0.000301
c1 = 1.64e-05	0.000326	0.000336	0.000346	0.000372
c1 = 1.96e-05	0.000397	0.000407	0.000429	0.000449
c1 = 2.28e-05	0.000463	0.000486	0.000507	0.000527
c1 = 2.6e-05	0.000539	0.000539	0.000559	0.000575
c1 = 2.91e-05	0.000615	0.000626	0.000642	0.000666
c1 = 3.23e-05	0.00067	0.000679	0.000695	0.000715
c1 = 3.54e-05	0.000736	0.000746	0.000766	0.000787
c1 = 3.85e-05	0.000789	0.000799	0.000799	0.000851
c1 = 4.15e-05	0.000856	0.000866	0.000889	0.000901
c1 = 4.46e-05	0.000916	0.000926	0.000946	0.000966
c1 = 4.76e-05	0.000962	0.000985	0.001	0.00103
c1 = 5.06e-05	0.001	0.00102	0.00105	0.00108
c1 = 5.36e-05	0.00105	0.00106	0.00108	0.0011
c1 = 5.66e-05	0.0011	0.00112	0.00113	0.00115
c1 = 5.96e-05	0.00116	0.00118	0.0012	0.00122
c1 = 6.25e-05	0.00121	0.00123	0.00125	0.00127
c1 = 6.54e-05	0.00126	0.00126	0.00128	0.00133
c1 = 6.83e-05	0.0013	0.00131	0.00133	0.00137
c1 = 7.12e-05	0.00134	0.00137	0.00138	0.0014
c1 = 7.41e-05	0.0014	–	–	–

O=C([O-])c1ccccc1.[Na+] [sodium benzoate] + O
electrical conductivity [S/m]
Settings	298 K	303 K	308 K	313 K
c1 = 1.98e-05	1.95e-05	1.613e-05	1.97e-05	2.22e-05
c1 = 3.92e-05	3.33e-05	3.53e-05	3.66e-05	4.21e-05
c1 = 5.82e-05	4.76e-05	5.11e-05	5.48e-05	5.98e-05
c1 = 7.69e-05	5.86e-05	6.55e-05	6.76e-05	7.77e-05
c1 = 9.52e-05	7.22e-05	7.97e-05	8.72e-05	9.3e-05
c1 = 0.0001221	8.72e-05	9.91e-05	0.000107	0.000116
c1 = 0.0001567	0.00011	0.000121	0.000133	0.000143
c1 = 0.00019	0.0001285	0.00013	0.000157	0.000167
c1 = 0.0002222	0.000145	0.000161	0.000178	0.00019
c1 = 0.0002533	0.000161	0.000175	0.000197	0.0002038
c1 = 0.0002906	0.00018	0.000199	0.000206	0.000221
c1 = 0.0003264	0.000198	0.000203	0.000224	0.000243
c1 = 0.0003607	0.000199	0.000217	0.000243	0.000262
c1 = 0.0004	0.000216	0.000235	0.000261	0.000285
c1 = 0.0004375	0.000231	0.000254	0.000284	0.000307
c1 = 0.0004791	0.000245	0.000271	0.000304	0.000332
c1 = 0.000524	0.000266	0.000291	0.000326	0.000354
c1 = 0.0005663	0.000293	0.000307	0.000338	0.000375
c1 = 0.0006063	0.000297	0.000324	0.000362	0.00039
c1 = 0.0006532	0.000314	0.000341	0.000381	0.000412
c1 = 0.0007055	0.000326	0.00036	0.000393	0.000439
c1 = 0.0007616	0.000349	0.000379	0.000428	0.000462
c1 = 0.0008131	0.000366	0.000398	0.000446	0.000486
c1 = 0.0008669	0.000381	0.000414	0.000463	0.000507
c1 = 0.0009218	0.000398	0.000432	0.000483	0.000526
c1 = 0.000977	0.000412	0.000443	0.000493	0.000547
c1 = 0.001027	0.000431	0.000456	0.000514	0.000563

O=C([O-])c1ccccc1O.[Na+] [sodium salicylate] + O
electrical conductivity [S/m]
Settings	298 K	303 K	308 K	313 K
c1 = 3.09e-05	2.48e-05	2.4e-05	2.71e-05	3.69e-05
c1 = 6.1e-05	4.76e-05	4.74e-05	5.24e-05	6.8e-05
c1 = 9.04e-05	6.66e-05	6.95e-05	7.56e-05	9.61e-05
c1 = 0.000119	8.34e-05	8.73e-05	9.64e-05	0.000122
c1 = 0.000147	0.000102	0.000107	0.000118	0.000149
c1 = 0.0001744	0.000118	0.000125	0.000136	0.000173
c1 = 0.0002064	0.000135	0.000144	0.000157	0.000197
c1 = 0.0002376	0.000152	0.000163	0.000176	0.000208
c1 = 0.0002778	0.000173	0.000185	0.0002	0.000237
c1 = 0.0003166	0.000192	0.000203	0.000209	0.000264
c1 = 0.0003541	0.000204	0.00021	0.000228	0.000286
c1 = 0.0003903	0.00021	0.000227	0.000248	0.000309
c1 = 0.0004339	0.000226	0.000248	0.00027	0.000327
c1 = 0.0004757	0.000244	0.000266	0.00029	0.000363
c1 = 0.0005237	0.000261	0.000288	0.000315	0.000393
c1 = 0.0005695	0.000281	0.000307	0.000338	0.000419
c1 = 0.0006132	0.000297	0.000325	0.000357	0.000441
c1 = 0.000655	0.000311	0.000342	0.000373	0.000463
c1 = 0.0007014	0.000322	0.00036	0.000394	0.000486
c1 = 0.0007517	0.000344	0.000378	0.000412	0.000511
c1 = 0.0007993	0.00036	0.000395	0.000434	0.000533
c1 = 0.0008444	0.000373	0.000409	0.000457	0.000547
c1 = 0.0008974	0.000389	0.000422	0.000482	0.000572
c1 = 0.0009472	0.000401	0.000448	0.000502	0.000592
c1 = 0.001003	0.000417	0.000459	0.000527	0.000614
c1 = 0.001063	0.000433	0.000483	0.000551	0.000635
c1 = 0.001123	0.00045	0.000492	0.000561	0.000656
c1 = 0.001181	0.000464	0.000515	0.000594	0.000674
c1 = 0.001241	0.000474	0.000535	0.000613	0.000692
c1 = 0.001301	0.000494	0.000552	0.000631	0.000712
